Patent US10875876B2, “Cyclized sulfamoylarylamide derivatives and the use thereof as medicaments for the treatment of hepatitis B” (priority 2015, dated 2020)

What was measured:
[1] = Cytotoxicity in HepG2 cells, Resazurin assay; details: human, HepG2 cells, TOX-HepG2-4 d CC50 (μM), HepG2 cells incubated for 4 days, viability by Resazurin assay
HBV = experiment: anti HBV activity, HepG2.117 cell line, intracellular HBV DNA by realtime PCR; type: cell-based; details: Hepatitis B virus, HepG2.117, 72 h, HepG2.117 cell line (Tet-off), 3 days of treatment, intracellular HBV DNA quantified by realtime PCR; read-out: HBV-AVE-HepG2.117 EC50
How it was run: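 HepG2.117 cells, a Tet-off line that replicates HBV without doxycycline, were induced and then treated in duplicate with serially diluted compound. After 3 days, intracellular HBV DNA was quantified by real-time PCR with an HBV-specific primer set and probe.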

SMILES | melting point | CC50 at 4 days [1] | EC50 (HBV)
CC(N)[C@H]1CCc2c(cn(C)c2C(=O)Nc2cc(F)c(F)c(F)c2)S(=O)(=O)N1 (stereo in doubt) | 281.2 °C |  | 
CCC(O)[C@H]1COc2c(cn(C)c2C(=O)Nc2ccc(F)c(C#N)c2)S(=O)(=O)N1 (some centres unmarked) | 252.2 °C |  | 
CC(C)C1CCc2c(cn(C)c2C(=O)Nc2ccc(F)c(C#N)c2)S(=O)(=O)N1 (centres unmarked) [Compound 85, N-(3-cyano-4-fluoro-phenyl)-3-isopropyl-7-methyl-1,1-dioxo-2,3,4,5-tetrahydropyrrolo[3,4-f]thiazepine-6-carboxamide] |  | > 25 µM | 0.007 µM
C[C@H]1CCc2c(cn(C)c2C(=O)Nc2ccnc(Cl)c2)S(=O)(=O)N1 [Compound 166, (3S)—N-(2-chloro-4-pyridyl)-3,7-dimethyl-1,1-dioxo-2,3,4,5-tetrahydropyrrolo[3,4-f]thiazepine-6-carboxamide] |  | > 25 µM | 0.056 µM
Cn1cc2c(c1C(=O)Nc1cc(F)c(F)c(F)c1)OC[C@H](C(O)C1CC1)NS2(=O)=O (single isomer, unassigned) [Compound 208a, 3-[cyclopropyl(hydroxy)methyl]-7-methyl-1,1-dioxo-N-(3,4,5-trifluorophenyl)-3,4-dihydro-2H-pyrrolo[3,4-b][1,4,5]oxathiazepine-6-carboxamide] |  | > 25 µM | 0.008 µM
CCC(O)[C@H]1COc2c(cn(C)c2C(=O)Nc2ccc(F)c(C(F)F)c2)S(=O)(=O)N1 (stereo partly drawn) [Compound 124a, (3R)—N-[3-(difluoromethyl)-4-fluoro-phenyl]-3-(1-hydroxypropyl)-7-methyl-1,1-dioxo-3,4-dihydro-2H-pyrrolo[3,4-b][1,4,5]oxathiazepine-6-carboxamide] |  | > 25 µM | 0.005 µM
C=C1c2c(cn(C)c2C(=O)Nc2ccc(F)c(C(F)F)c2)S(=O)(=O)NC1C(C)C (centres unmarked) [compound 238] |  | > 25 µM | 0.077 µM
CO[C@H](C)[C@H]1COc2c(cn(C)c2C(=O)Nc2ccc(F)c(F)c2)S(=O)(=O)N1 [Compound 62, (3R)—N-(3,4-difluorophenyl)-3-[(1R)-1-methoxyethyl]-7-methyl-1,1-dioxo-3,4-dihydro-2H-pyrrolo[3,4-b][1,4,5]oxathiazepine-6-carboxamide] |  | > 25 µM | 0.009 µM
C[C@@H](O)[C@H]1CCc2c(cn(C)c2C(=O)Nc2ccc(F)c(F)c2)S(=O)(=O)N1 [Compound 70, (3R)—N-(3,4-difluorophenyl)-3-[(1R)-1-hydroxyethyl]-7-methyl-1,1-dioxo-2,3,4,5-tetrahydropyrrolo[3,4-f]thiazepine-6-carboxamide] |  | > 25 µM | 0.014 µM
CC(C)C1CCc2c(cn(C)c2C(=O)Nc2ccc(F)c(C(F)F)c2)S(=O)(=O)N1 (centres unmarked) [Compound 86, N-[3-(difluoromethyl)-4-fluoro-phenyl]-3-isopropyl-7-methyl-1,1-dioxo-2,3,4,5-tetrahydropyrrolo[3,4-f]thiazepine-6-carboxamide] |  | > 25 µM | 0.005 µM
Cn1cc2c(c1C(=O)Nc1ccc(F)c(F)c1)OCC(C1CCN(C(=O)OC(C)(C)C)CC1)NS2(=O)=O (centres unmarked) [Compound 72, tert-butyl 4-[6-[(3,4-difluorophenyl)carbamoyl]-7-methyl-1,1-dioxo-3,4-dihydro-2H-pyrrolo[3,4-b][1,4,5]oxathiazepin-3-yl]piperidine-1-carboxylate] |  | > 25 µM | 0.05 µM
C[C@H]1C=Cc2c(cn(C)c2C(=O)Nc2ccc(F)c(Cl)c2F)S(=O)(=O)N1 (single isomer, unassigned) [Compound 52, (3*S)—N-(3-chloro-2,4-difluoro-phenyl)-3,7-dimethyl-1,1-dioxo-2,3-dihydropyrrolo[3,4-f]thiazepine-6-carboxamide] |  | > 25 µM | 0.056 µM
Cn1cc2c(c1C(=O)Nc1ccc(F)c(F)c1)OCC1(CC1)NS2(=O)=O [Compound 19, N-(3,4-difluorophenyl)-7-methyl-1,1-dioxo-spiro[2,4-dihydropyrrolo-[3,4-b][1,4,5]oxathiazepine-3,1′-cyclopropane]-6-carboxamide] |  | > 25 µM | 0.19 µM
CC(NCC(F)(F)F)C1CCc2c(cn(C)c2C(=O)Nc2cc(F)c(F)c(F)c2)S(=O)(=O)N1 (single isomer, unassigned) [Compound 218a, 7-methyl-1,1-dioxo-3-[1-(2,2,2-trifluoroethylamino)ethyl]-N-(3,4,5-trifluorophenyl)-2,3,4,5-tetrahydropyrrolo[3,4-f]thiazepine-6-carboxamide] |  | > 25 µM | > 0.125 µM
C[C@@H](N1CC/C=C\c2c(cn(C)c2C(=O)Nc2ccc(F)c(F)c2)S1(=O)=O)C(F)(F)F [Compound 3, (5Z)—N-(3,4-difluorophenyl)-8-methyl-1,1-dioxo-2-[(1R)-2,2,2-trifluoro-1-methyl-ethyl]-3,4-dihydropyrrolo[3,4-g]thiazocine-7-carboxamide] |  | > 25 µM | > 0.5 µM
Cn1cc2c(c1C(=O)Nc1ccc(F)c(F)c1)OCC(C(O)c1ccccn1)NS2(=O)=O (centres unmarked) [Compound 141a, N-(3,4-difluorophenyl)-3-[hydroxy(2-pyridyl)methyl]-7-methyl-1,1-dioxo-3,4-dihydro-2H-pyrrolo[3,4-b][1,4,5]oxathiazepine-6-carboxamide] |  | > 25 µM | 0.03 µM
C[C@H]1CCc2c(cn(C)c2C(=O)Nc2ccnc(C(F)F)c2)S(=O)(=O)N1 [Compound 165, (3S)—N-[2-(difluoromethyl)-4-pyridyl]-3,7-dimethyl-1,1-dioxo-2,3,4,5-tetrahydropyrrolo[3,4-f]thiazepine-6-carboxamide] |  | > 25 µM | 0.068 µM
CC(C)C1CCc2c(cn(C)c2C(=O)Nc2ccc(F)c(F)c2)S(=O)(=O)N1 (centres unmarked) [Compound 81, N-(3,4-difluorophenyl)-3-isopropyl-7-methyl-1,1-dioxo-2,3,4,5-tetrahydropyrrolo[3,4-f]thiazepine-6-carboxamide] |  | > 25 µM | 0.002 µM
Cn1cc2c(c1C(=O)Nc1ccc(F)c(C#N)c1)OC[C@H](Cc1cccnc1)NS2(=O)=O [Compound 71, (3S)—N-(3-cyano-4-fluoro-phenyl)-7-methyl-1,1-dioxo-3-(3-pyridylmethyl)-3,4-dihydro-2H-pyrrolo[3,4-b][1,4,5]oxathiazepine-6-carboxamide] |  | > 25 µM | 0.003 µM
CC(C)C(O)C1COc2c(cn(C)c2C(=O)Nc2ccc(F)c(C#N)c2)S(=O)(=O)N1 (centres unmarked) [Compound 119a, N-(3-cyano-4-fluoro-phenyl)-3-(1-hydroxy-2-methyl-propyl)-7-methyl-1,1-dioxo-3,4-dihydro-2H-pyrrolo[3,4-b][1,4,5]oxathiazepine-6-carboxamide] |  | > 25 µM | 0.011 µM
Cn1cc(C2COc3c(cn(C)c3C(=O)Nc3ccc(F)c(F)c3)S(=O)(=O)N2)cn1 (centres unmarked) [Compound 43, N-(3,4-difluorophenyl)-7-methyl-3-(1-methylpyrazol-4-yl)-1,1-dioxo-3,4-dihydro-2H-pyrrolo[3,4-b][1,4,5]oxathiazepine-6-carboxamide] |  | > 25 µM | 0.056 µM
CC(C)C1CCc2c(cn(C)c2C(=O)Nc2ccnc(C(F)F)c2)S(=O)(=O)N1 (centres unmarked) [Compound 108, N-[2-(difluoromethyl)-4-pyridyl]-3-isopropyl-7-methyl-1,1-dioxo-2,3,4,5-tetrahydropyrrolo[3,4-f]thiazepine-6-carboxamide] |  | > 25 µM | 0.016 µM
Cn1cc2c(c1C(=O)Nc1ccc(F)c(F)c1)OCC(C)(Cc1ccc(Cl)nc1)NS2(=O)=O (centres unmarked) [Compound 197, 3-[(6-chloro-3-pyridyl)methyl]-N-(3,4-difluorophenyl)-3,7-dimethyl-1,1-dioxo-2,4-dihydropyrrolo[3,4-b][1,4,5]oxathiazepine-6-carboxamide] |  | > 25 µM | 0.011 µM
C[C@H]1C=Cc2c(cn(C)c2C(=O)Nc2ccnc(C(F)(F)F)c2)S(=O)(=O)N1 (single isomer, unassigned) [Compound 42, (3*S)-3,7-dimethyl-1,1-dioxo-N-[2-(trifluoromethyl)-4-pyridyl]-2,3-dihydropyrrolo[3,4-f]thiazepine-6-carboxamide] |  | > 25 µM | 0.081 µM
C[C@@H]1Oc2c(cn(C)c2C(=O)Nc2ccnc(C(F)F)c2)S(=O)(=O)N[C@@H]1CO [compound 233] |  | > 25 µM | > 0.5 µM
Cn1cc2c(c1C(=O)Nc1ccc(F)c(Cl)c1)OC[C@H](C(O)C1CC1)NS2(=O)=O (single isomer, unassigned) [Compound 207a, N-(3-chloro-4-fluoro-phenyl)-3-[cyclopropyl(hydroxy)methyl]-7-methyl-1,1-dioxo-3,4-dihydro-2H-pyrrolo[3,4-b][1,4,5]oxathiazepine-6-carboxamide] |  | > 25 µM | 0.008 µM
CC1Cc2c(cn(C)c2C(=O)Nc2ccc(F)c(F)c2)S(=O)(=O)N1 (centres unmarked) [Compound 11, N-(3,4-difluorophenyl)-3,6-dimethyl-1,1-dioxo-3,4-dihydro-2H-pyrrolo-[3,4-e]thiazine-5-carboxamide] |  | > 25 µM | 0.077 µM
Cn1cc2c(c1C(=O)Nc1ccc(F)c(C#N)c1)C=CC(C(F)F)NS2(=O)=O (centres unmarked) [Compound 189, N-(3-cyano-4-fluoro-phenyl)-3-(difluoromethyl)-7-methyl-1,1-dioxo-2,3-dihydropyrrolo[3,4-f]thiazepine-6-carboxamide] |  | > 25 µM | 0.11 µM
Cn1cc2c(c1C(=O)Nc1ccc(F)c(C#N)c1)CCC(C(C)(F)F)NS2(=O)=O (centres unmarked) [Compound 118, N-(3-cyano-4-fluoro-phenyl)-3-(1,1-difluoroethyl)-7-methyl-1,1-dioxo-2,3,4,5-tetrahydropyrrolo[3,4-f]thiazepine-6-carboxamide] |  | > 25 µM | 0.013 µM
